Measured values reported in patent EP4650353A1 (Shanghai Institute of Materia Medica, Chinese Academy of …, priority 2023, dated 2024).

Target: T1, human GLP-1 receptor (Homo sapiens, UniProt P43220)
T1 construct: HA (N); expressed in transfected cells
Experiment: GLP-1 receptor-mediated agonist activity: cAMP level in hGLP-1R/HEK293 cell line (HTRF)
Type: cell-based
Details: cAMP levels in hGLP-1R/HEK293 cell line; Table 1; read-out: determined EC50
Description: The hGLP-1R/HEK293 cells were digested, centrifuged and resuspended in culture medium (DMEM+0.2% BSA, m/v), and the cell density was adjusted to 2×10^5 cells/mL. IBMX (3-isobutyl-1-methylxanthine, final concentration of 0.5 mM) was added to the cell suspension and added to a 384-well plate at 5 µL (1×10^3 cells)/well. The compound was dissolved in DMSO to prepare a stock solution with a concentration of 10 mM. The experiment started with a concentration of 100 µM which was diluted 10 times in a series of 7 dilution points, with the 8th point being DMSO. 2 µL of the test compound of different concentrations was added to 98 µL of culture medium, shaken and mixed, 5 µL was taken and added to a 384-well plate (final concentration of the test compound was 0-100 nM, final concentration of DMSO was 1%, v/v), which was then incubated in the incubator (37°C, 5% CO2) in the dark for 30 min, then 10 µL of cAMP detection reagent (LANCE Ultra cAMP Detecion Kit, PerkinElmer, #TRF0264) was added, mixed well, and reacted at room temperature in the dark for 1 h. After the reaction was completed, the HTRF signal was read using the Envision 2104 multi-function microplate reader. All samples were tested in triplicate wells, and the ratio of the acceptor-donor excitation signal in each single well was calculated using the formula Ratio = Signal 665nM/Signal 620nM. The HTRF signal ratio and the corresponding compound concentration were analyzed and processed using GraphPad Prism 8 software, and the EC50 value of the compound was obtained by fitting the S-type dose-response curve and calculating.

T1 sequence (P43220 24-463): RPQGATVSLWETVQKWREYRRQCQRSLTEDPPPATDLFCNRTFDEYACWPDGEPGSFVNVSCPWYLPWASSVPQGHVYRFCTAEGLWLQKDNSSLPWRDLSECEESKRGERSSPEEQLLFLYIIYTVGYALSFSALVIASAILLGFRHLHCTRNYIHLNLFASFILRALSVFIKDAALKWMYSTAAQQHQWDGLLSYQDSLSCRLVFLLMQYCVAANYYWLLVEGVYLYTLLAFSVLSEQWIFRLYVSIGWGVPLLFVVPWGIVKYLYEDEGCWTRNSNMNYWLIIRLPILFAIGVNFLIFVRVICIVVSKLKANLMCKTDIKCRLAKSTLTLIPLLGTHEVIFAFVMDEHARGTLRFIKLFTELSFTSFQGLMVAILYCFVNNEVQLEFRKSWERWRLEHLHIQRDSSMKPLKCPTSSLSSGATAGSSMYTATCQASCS

Row | EC50 [pM] | SMILES
1 | 3.3 | COc1cc(C#N)ccc1COc1ncccc1C1CCN(Cc2nc3c(OC)cc(C(=O)O)cc3n2C[C@@H]2CCO2)CC1 [Compound 34, (S)-2-((4-(2-((4-cyano-2-methoxybenzyl)oxy)pyridin-3-yl)piperidin-1-yl)methyl)-4-methoxy-1-(oxetan-2-ylmethyl)-1H-benzo[d]imidazole-6-carboxylic acid]
2 | 8.2 | COc1cc(C(=O)O)cc2c1nc(CN1CCC(c3cccnc3OCc3ccc(C#N)c4c3OCC4)CC1)n2C[C@@H]1CCO1 [Compound 35, (S)-2-((4-(2-((4-cyano-2,3-dihydrobenzofuran-7-yl)methoxy)pyridin-3-yl)piperidin-1-yl)methyl)-4-methoxy-1-(oxetan-2-ylmethyl)-1H-benzo[d]imidazole-6-carboxylic acid]
3 | 8.3 | COc1cc(C(=O)O)cc2c1nc(CN1CCC(c3cccc4c3OC(C)(c3ccc(Cl)cc3F)O4)CC1)n2C[C@@H]1CCO1 (stereo partly drawn) [Compound 36, 2-((4-(2-(4-chloro-2-fluorophenyl)-2-methylbenzo[d][1,3]dioxol-4-yl)piperidin-1-yl)methyl)-4-methoxy-1-(((S)-oxetan-2-yl)methyl)-1H-benzo[d]imidazole-6-carboxylic acid]
4 | 6.7 | CCOc1cc(C(=O)O)cc2c1nc(CN1CCC(c3cccc4c3OC(C)(c3ccc(Cl)cc3F)O4)CC1)n2C[C@@H]1CCO1 (stereo partly drawn) [Compound 37, 2-((4-(2-(4-chloro-2-fluorophenyl)-2-methylbenzo[d][1,3]dioxol-4-yl)piperidin-1-yl)methyl)-4-ethoxy-1-(((S)-oxetan-2-yl)methyl)-1H-benzo[d]imidazole-6-carboxylic acid]
5 | 22.9 | COc1cc(C(=O)O)cc2c1nc(CN1CCC(c3cccc4c3OC(C)(c3ccc(Cl)cn3)O4)CC1)n2C[C@@H]1CCO1 (stereo partly drawn) [Compound 38, 2-((4-(2-(5-chloropyridin-2-yl)-2-methylbenzo[d][1,3]dioxol-4-yl)piperidin-1-yl)methyl)-4-methoxy-1-(((S)-oxetan-2-yl)methyl)-1H-benzo[d]imidazole-6-carboxylic acid]
6 | 8 | CCOc1cc(C(=O)O)cc2c1nc(CN1CCC(c3cccc4c3OC(C)(c3ccc(Cl)cn3)O4)CC1)n2C[C@@H]1CCO1 (stereo partly drawn) [Compound 39, 2-((4-(2-(5-chloropyridin-2-yl)-2-methylbenzo[d][1,3]dioxol-4-yl)piperidin-1-yl)methyl)-4-ethoxy-1-(((S)-oxetan-2-yl)methyl)-1H-benzo[d]imidazole-6-carboxylic acid]
7 | 11.1 | COc1cc(C(=O)O)cc2c1nc(CN1CCN(c3cccc4c3OC(C)(c3ccc(Cl)cc3F)O4)CC1)n2C[C@@H]1CCO1 (stereo partly drawn) [Compound 40, 2-((4-(2-(4-chloro-2-fluorophenyl)-2-methylbenzo[d][1,3]dioxol-4-yl)piperazin-1-yl)methyl)-4-methoxy-1-(((S)-oxetan-2-yl)methyl)-1H-benzo[d]imidazole-6-carboxylic acid]
8 | 29.8 | COc1cc(C#N)ccc1COc1cccc(C2CCN(Cc3nc4c(OC)cc(C(=O)O)cc4n3C[C@@H]3CCO3)CC2)c1 [Compound 42, (S)-2-((4-(3-((4-cyano-2-methoxybenzyl)oxy)phenyl)piperidin-1-yl)methyl)-4-methoxy-1-(oxetan-2-ylmethyl)-1H-benzo[d]imidazole-6-carboxylic acid]
9 | 34.2 | COc1cc(C(=O)O)cc2c1nc(CN1CCC(c3cccc(OCc4ccc(C#N)c5c4OCC5)c3)CC1)n2C[C@@H]1CCO1 [Compound 43, (S)-2-((4-(3-((4-cyano-2,3-dihydrobenzofuran-7-yl)methoxy)phenyl)piperidin-1-yl)methyl)-4-methoxy-1-(oxetan-2-ylmethyl)-1H-benzo[d]imidazole-6-carboxylic acid]
10 | 9.5 | COc1cc(C#N)ccc1COc1ccccc1C1CCN(Cc2nc3c(OC)cc(C(=O)O)cc3n2C[C@@H]2CCO2)CC1 [Compound 44, (S)-2-((4-(2-((4-cyano-2-methoxybenzyl)oxy)phenyl)piperidin-1-yl)methyl)-4-methoxy-1-(oxetan-2-ylmethyl)-1H-benzo[d]imidazole-6-carboxylic acid]
11 | 50.9 | COc1cc(C(=O)O)cc2c1nc(CN1CCC(c3ccccc3OCc3ccc(Cl)c4c3OCC4)CC1)n2C[C@@H]1CCO1 [Compound 45, (S)-2-((4-(2-((4-chloro-2,3-dihydrobenzofuran-7-yl)methoxy)phenyl)piperidin-1-yl)methyl)-4-methoxy-1-(oxetan-2-ylmethyl)-1H-benzo[d]imidazole-6-carboxylic acid]
12 | 42.2 | COc1cc(C(=O)O)cc2c1nc(CN1CCC(c3ccccc3OCc3ccc(C#N)c4c3OCC4)CC1)n2C[C@@H]1CCO1 [Compound 46, (S)-2-((4-(2-((4-cyano-2,3-dihydrobenzofuran-7-yl)methoxy)phenyl)piperidin-1-yl)methyl)-4-methoxy-1-(oxetan-2-ylmethyl)-1H-benzo[d]imidazole-6-carboxylic acid]
13 | 61.3 | COc1cc(C(=O)O)cc2c1nc(CN1CCC(c3ccccc3OCc3ccc(C#N)cc3F)CC1)n2C[C@@H]1CCO1 [Compound 47, (S)-2-((4-(2-((4-cyano-2-fluorobenzyl)oxy)phenyl)piperidin-1-yl)methyl)-4-methoxy-1-(oxetan-2-ylmethyl)-1H-benzo[d]imidazole-6-carboxylic acid]
14 | 43.4 | COc1cc(C(=O)O)cc2c1nc(CN1CCC(c3ccccc3OCc3ccc(Cl)cc3F)CC1)n2C[C@@H]1CCO1 [Compound 48, (S)-2-((4-(2-((4-chloro-2-fluorobenzyl)oxy)phenyl)piperidin-1-yl)methyl)-4-methoxy-1-(oxetan-2-ylmethyl)-1H-benzo[d]imidazole-6-carboxylic acid]
15 | 1.6 | COc1cc(C(F)(F)F)ccc1COc1cccc(C2CCN(Cc3nc4c(OC)cc(C(=O)O)cc4n3C[C@@H]3CCO3)CC2)n1 [Compound 51, (S)-4-methoxy-2-((4-(6-((2-methoxy-4-(trifluoromethyl)benzyl)oxy)pyridin-2-yl)piperidin-1-yl)methyl)-1-(oxetan-2-ylmethyl)-1H-benzo[d]imidazole-6-carboxylic acid]
16 | 1.2 | CCOc1cc(C(=O)O)cc2c1nc(CN1CCC(c3cccc(OCc4ccc(C(F)(F)F)cc4OC)n3)CC1)n2C[C@@H]1CCO1 [Compound 52, (S)-4-ethoxy-2-((4-(6-((2-methoxy-4-(trifluoromethyl)benzyl)oxy)pyridin-2-yl)piperidin-1-yl)methyl)-1-(oxetan-2-ylmethyl)-1H-benzo[d]imidazole-6-carboxylic acid]
17 | 9.3 | COc1cc(C(=O)O)cc2c1nc(CN1CCC(c3cccc4c3OC(C)(c3ccc(C(F)(F)F)cc3F)O4)CC1)n2C[C@@H]1CCO1 (stereo partly drawn) [Compound 53, 2-((4-(2-(2-fluoro-4-(trifluoromethyl)phenyl)-2-methylbenzo[d][1,3]dioxol-4-yl)piperidin-1-yl)methyl)-4-methoxy-1-(((S)-oxetan-2-yl)methyl)-1H-benzo[d]imidazole-6-carboxylic acid]
18 | 7.7 | CCOc1cc(C(=O)O)cc2c1nc(CN1CCC(c3cccc4c3OC(C)(c3ccc(C(F)(F)F)cc3F)O4)CC1)n2C[C@@H]1CCO1 (stereo partly drawn) [Compound 54, 4-ethoxy-2-((4-(2-(2-fluoro-4-(trifluoromethyl)phenyl)-2-methylbenzo[d][1,3]dioxol-4-yl)piperidin-1-yl)methyl)-1-(((S)-oxetan-2-yl)methyl)-1H-benzo[d]imidazole-6-carboxylic acid]
19 | 25.2 | COc1cc(C(=O)O)cc2c1nc(CN1CCC(c3cccc4c3OC(C)(c3ccc(C(F)(F)F)cn3)O4)CC1)n2C[C@@H]1CCO1 (stereo partly drawn) [Compound 55, 4-methoxy-2-((4-(2-methyl-2-(5-(trifluoromethyl)pyridin-2-yl)benzo[d][1,3]dioxol-4-yl)piperidin-1-yl)methyl)-1-(((S)-oxetan-2-yl)methyl)-1H-benzo[d]imidazole-6-carboxylic acid]
20 | 9.8 | CCOc1cc(C(=O)O)cc2c1nc(CN1CCC(c3cccc4c3OC(C)(c3ccc(C(F)(F)F)cn3)O4)CC1)n2C[C@@H]1CCO1 (stereo partly drawn) [Compound 56, 4-ethoxy-2-((4-(2-methyl-2-(5-(trifluoromethyl)pyridin-2-yl)benzo[d][1,3]dioxol-4-yl)piperidin-1-yl)methyl)-1-(((S)-oxetan-2-yl)methyl)-1H-benzo[d]imidazole-6-carboxylic acid]
21 | 2.8 | COc1cc(Cl)ccc1C1(C)Oc2cccc(C3CCN(Cc4nc5c(OC)cc(C(=O)O)cc5n4C[C@@H]4CCO4)CC3)c2O1 (stereo partly drawn) [Compound 57, 2-((4-(2-(4-chloro-2-methoxyphenyl)-2-methylbenzo[d][1,3]dioxol-4-yl)piperidin-1-yl)methyl)-4-methoxy-1-(((S)-oxetan-2-yl)methyl)-1H-benzo[d]imidazole-6-carboxylic acid]
22 | 2.2 | CCOc1cc(C(=O)O)cc2c1nc(CN1CCC(c3cccc4c3OC(C)(c3ccc(Cl)cc3OC)O4)CC1)n2C[C@@H]1CCO1 (stereo partly drawn) [Compound 58, 2-((4-(2-(4-chloro-2-methoxyphenyl)-2-methylbenzo[d][1,3]dioxol-4-yl)piperidin-1-yl)methyl)-4-ethoxy-1-(((S)-oxetan-2-yl)methyl)-1H-benzo[d]imidazole-6-carboxylic acid]
23 | 2.6 | CCOc1cc(C(=O)O)cc2c1nc(CN1CCC(c3cccc4c3OC(C)(c3ccc(C(F)(F)F)cc3OC)O4)CC1)n2C[C@@H]1CCO1 (stereo partly shown) [Compound 60]
24 | 22 | CC1(c2ccc(Cl)cn2)Oc2cccc(C3CCN(Cc4nc5c(OC(F)F)cc(C(=O)O)cc5n4C[C@@H]4CCO4)CC3)c2O1 (stereo partly drawn) [Compound 62, 2-((4-(2-(5-chloropyridin-2-yl)-2-methylbenzo[d][1,3]dioxol-4-yl)piperidin-1-yl)methyl)-4-(difluoromethoxy)-1-(((S)-oxetan-2-yl)methyl)-1H-benzo[d]imidazole-6-carboxylic acid]
25 | 49 | COc1cc(C(=O)O)cc2c1nc(CN1CCN(c3cccc4c3OC(C)(c3ccc(C(F)(F)F)cn3)O4)C=N1)n2C[C@@H]1CCO1 (stereo partly drawn) [Compound 65, 4-methoxy-2-((4-(2-methyl-2-(5-(trifluoromethyl)pyridin-2-yl)benzo[d][1,3]dioxol-4-yl)-5,6-dihydro-1,2,4-triazin-1(4H)-yl)methyl)-1-(((S)-oxetan-2-yl)methyl)-1H-benzo[d]imidazole-6-carboxylic acid]
